Entries after “also recorded” stand apart in the source; their conditions may differ. Read-outs that look alike come from different tables or passages of the source.
What was measured:
[1] = Pharmacokinetic profile after P.O. dosing (plasma concentration); type: in vivo; details: mouse, 30 mg/kg oral gavage, male 2-month-old C57Bl/6 mice, for 8 hours, read-out: plasma concentration of Compound 1 maintained for 8 hours
Procedure: (§1) Compound levels were measured by MS/MS by Quintara (Hayward, Calif.).
Plasma from male 2-month-old C57Bl/6 mice was measured for concentrations of Compound 1 at time points of 20 minutes, 2 hours, 8 hours, and 12 hours after oral gavage at 2 doses: 30 mg/kg and 150 mg/kg.

[2] = Compound cerebrospinal fluid levels in mice (mass spectroscopy); type: in vivo, C57BL/6 mice; details: for concentration at 4 weeks: C57BL/6, mouse, cerebrospinal fluid, subcutaneous, 16.5-month-old old group, read-out: level of Compound 1 in CSF
Procedure: as §1
Cerebrospinal fluid (CSF) from both the 2-month-old “young” and 16.5-month-old “old” groups was collected and levels of Compound 1 were determined by mass spectroscopy. FIG. 6 depicts the levels of the compound of the invention that were detected in mouse CSF for both the young and old groups (both below 10 nM).

[3] = tested on: BrdU-positive cells in the hippocampus; test: Histology: BrdU positive cells in hippocampus of aged mice; type: in vivo, C57Bl/6 mice
Procedure: (§2) For fluorescent microscopy, the following antibodies were used in the given concentrations: GFAP, 1:500, DAKO; Iba1, 1:1000, Wako; and BrdU, 1:500, AbCam. Antigen retrieval protocol was required for BrdU (2N HCl, 37 C, 30 min) prior to blocking. The appropriate fluorescent secondary antibodies were applied the next day at a concentration of 1:300 for one hour at room temperature. Prolong Gold Mounting Media was used to coverslip the slides. Images were acquired on a light microscope at 5× magnification.
Two-month-old or 18-month-old C57Bl/6 mice were dosed with either IgG antibody control by IP injection or Compound 1 subcutaneously by Alzet osmotic pump for either 2 or 4 weeks. During the last week of treatment, mice were subjected to behavior testing prior to perfusion on the last day of treatment. All mice received 5 consecutive days of BrdU injection at 150 mg/kg IP immediately prior to treatment start. […]

GFAP-positive astroglia = test: IHC of GFAP-positive astroglia in hippocampus of mice given daily LPS; type: in vivo, C57Bl/6 mice; details: 3-month-old mice, daily LPS IP 7 weeks, 30 mg/kg PO BID 4 weeks
Procedure: as §2
(§3) Three-month-old C57 mice were given daily doses of lipopolysaccharide (LPS) 0.5 mg/kg IP to induce inflammation and treated with Compound 1 for up to 4 weeks.
(§4) Treatment Groups: • Treatment Group 1, Vehicle treatment: 3-month-old C57 mice (n=10) received daily IP injection of LPS for 7 weeks and twice daily (BID) oral gavage (PO) treatment of vehicle solution for up to 4 weeks. • Treatment Group 2, Vehicle treatment and Oxazolone treatment: 3-month-old C57 mice (n=10) received daily IP injection of LPS for 7 weeks and twice daily (BID) oral gavage (PO) treatment of vehicle solution for up to 4 weeks. • Treatment Group 3, Compound 1 treatment and Oxazolone treatment: 3-month-old C57 mice (n=9) received daily IP injection of LPS for 7 weeks and twice daily (BID) oral gavage (PO) treatment of Compound 1, 30 mg/kg, for up to 4 weeks.

Iba1-positive microglia = test: IHC of Iba1-positive microglia in hippocampus of mice given daily LPS; type: in vivo, C57Bl/6 mice; details: 3-month-old mice, daily LPS IP 7 weeks, 30 mg/kg PO BID 4 weeks
Procedure: as §2, §3, §4

[4] = tested on: twenty-four-month-old C57 mice; test: Overnight fecal output, water and food intake in aged mice; type: in vivo; details: 4 weeks continuous infusion by osmotic pump
Procedure: Twenty-four-month-old C57 mice were treated for 4 weeks with continuous infusion of Compound 1 or vehicle by Alzet osmotic pump, which were implanted to continuously deliver the two treatments.
Treatment Groups: • Treatment Group 1, Old Controls: Aged C57BL/6 mice (n=15), aged 23 months, received infusion of vehicle by Alzet mini-pump, model 2002 (0.5 uL/hr), for four weeks with one replacement. • Treatment Group 2, Compound 1 (dose 2) in Old: Aged C57BL/6 mice (n=15), aged 23 months, received infusion of ˜50 mg/ml Compound 1 by Alzet mini-pump, model 2002 (0.5 uL/hr), for four weeks with one replacement.
Fecal output was measured by weighing the dry weight of fecal pellets overnight (FIG. 22). […] is a well-known symptom of Parkinson's disease. Water and food intake were measured over the same time period.

concentration at 8 hours [1]: > 0.1 µM
concentration at 4 weeks ([2]; 50 mg/mL solution infused at 0.5 μL/hour by Alzet mini-pump, mass spectroscopy): < 0.01 µM
concentration at 4 weeks ([2]; mass spectroscopy): < 0.01 µM
level of Compound 1 in CSF ([2]; young group, mass spectroscopy): below 10 nM
Compound: Cc1cc(C(=O)N(C)C)cc(NC(=O)[C@H]2CCC(=O)N2C2CCN(Cc3ccc(Cl)c(C)c3)CC2)n1 [Compound 1]
difference in BBB penetration between young and old mice ([2]; mouse, in vivo): no difference in BBB penetration between young and old mice
crossing of the blood-brain barrier (CSF levels versus Ki) ([2]; young and old mice): do not cross the blood-brain barrier (BBB) in significant concentrations
BrdU-positive cells in the hippocampus ([3]; 16.5-month-old mice, four-week dosing by pump): significantly increased the number of BrdU-positive cells
BrdU-positive cells in the hippocampus ([3]; 18-month-old mice, higher dosing for 2 weeks by pump): trend in increased BrdU-positive cells
GFAP+ immunoreactivity (total astrocytes) in hippocampus (GFAP-positive astroglia): dramatically decreased GFAP+ immunoreactivity; also recorded: trend towards decrease
Iba1+ immunoreactivity (total microglia) in hippocampus (Iba1-positive microglia): dramatically decreased Iba1+ immunoreactivity; also recorded: trend towards decrease
fecal output overnight [4]: significantly lower fecal output
food intake overnight [4]: no differences in total food intake
water intake overnight [4]: significantly higher water intake; also recorded: drank significantly more water

From patent US11382907B2, “Methods and compositions for treating aging-associated impairments using CCR3-inhibitors” (Alkahest, Inc., priority 2017, dated 2022)
